The values below come from the CATMoS acute toxicity set (Mansouri et al. 2021).

This data set can be described thus: GHS categories as the set defines them, by LD50: 1 up to 5, 2 up to 50, 3 up to 300, 4 up to 2000, 5 above 2000 mg/kg. Particulars: rat; in vivo; po.

With `CCCS(=O)(=O)Nc1ccc(F)c(C(=O)c2cn(C(=O)c3c(Cl)cccc3Cl)c3ncc(-c4ccc(Cl)cc4)cc23)c1F`, the GHS category was 5.
As for `CCCCNC(=O)CC[C@H](NC(=O)C(CC)CCCC)C(=O)NCCCC` (some centres undefined), the figure is 5.
Regarding `COC(=O)c1ccccc1S(=O)(=O)NC(=O)Nc1nc(OC(F)F)cc(OC(F)F)n1`, the GHS category is on record as 5.
`CCOCCC(C)CCC=C(C)C` (centres undefined) came in with a GHS category of 5.
In turn, `C=CC(C)CCC=C(C)C` (centres undefined) came in with a GHS category of 5.
In turn, `CCNC(=O)[C@@H]1CCCN1C(=O)[C@H](CCCN=C(N)N)NC(=O)[C@H](CC(C)C)NC(=O)[C@@H](COC(C)(C)C)NC(=O)[C@H](Cc1ccc(O)cc1)NC(=O)[C@H](CO)NC(=O)[C@H](Cc1c[nH]c2ccccc12)NC(=O)[C@H](Cc1cnc[nH]1)NC(=O)[C@@H]1CCC(=O)N1` returned a GHS category of 4.
For the molecule `CC(C)(c1ccc(OCC2CO2)cc1)c1ccc(OCC2CO2)cc1` (centres undefined), the GHS category was determined as 4.
`CC(=O)Nc1ccc(/N=N/c2c(S(=O)(=O)O)cc3cc(NC(=O)Nc4ccc5c(O)c(/N=N/c6ccccc6)c(S(=O)(=O)O)cc5c4)ccc3c2O)cc1`: the GHS category worked out at 5.
As for `CCCc1c(Cc2ccc(-c3ccccc3-c3nn[nH]n3)cc2)c(=O)nc2nc(CO)[nH]n12`, the figure is 4; as for `CNC(=O)N(C)c1nc2ccccc2s1`, 5; as for `CN(CCOP(=O)(O)O)C(=N)N`, 5.
`CCC(=O)CCC1C(C)=CCCC1(C)C` (centres undefined) displayed a GHS category of 5.
Molecule `CCOC(=O)NC(=S)Nc1ccccc1NC(=S)NC(=O)OCC` yielded a GHS category of 5.
Take `CCCc1c(Cc2ccc(-c3ccccc3-c3nn[nH]n3)cc2)c(=O)nc2nc(CC)[nH]n12`: the GHS category was 4.
For the molecule `C=C(C)C(=O)OCC[N+](C)(C)C`, the GHS category turned out to be 5.
Next, `CO[C@@]1(NC(=O)C2SC(=C(C(N)=O)C(=O)O)S2)C(=O)N2C(C(=O)O)=C(CSc3nnnn3C)CS[C@@H]21` (some centres undefined): 5.
Next, `CCCCCCCCCCCC(=O)OC`: 5; `CCCCCC(=O)CC`: 5; `FC(F)CNCc1ccc(Cl)nc1`: 5.
Turning to `CC(C)COC(=O)CC(C)C`, the GHS category turned out to be 5.
Next, `OCCn1c(C=Cc2nc3ccccc3[nH]2)nc2ccccc21`: 5.
As for `CC[C@H]1C[C@@H]2CC[C@@H](O2)[C@@H](C)C(=O)O[C@H](CC)C[C@H]2CC[C@H](O2)[C@H](C)C(=O)O[C@@H](CC)C[C@@H]2CC[C@@H](O2)[C@@H](C)C(=O)O[C@H](CC)C[C@H]2CC[C@H](O2)[C@H](C)C(=O)O1`, the GHS category worked out at 5.
Next, `O=C1C=C2C=C[C@@H]3C[C@@]2(O1)[C@H]1CCCCN31`: 4; `COc1ccccc1NC(=O)C(N=Nc1ccc(Cl)cc1[N+](=O)[O-])C(C)=O` (centres undefined): 5.
Next, `CCCCCCCCCCCCSN(C)C(=O)Oc1cccc2c1OC(C)(C)C2`: 3.
As for `CC(SCC(=O)O)c1ccc2c(c1)Cc1ccccc1-2` (centres undefined), the figure is 4.
In turn, `CN(C(=O)CC(=O)N(C)c1c(I)c(C(=O)NC(CO)C(O)CO)c(I)c(C(=O)NC(CO)C(O)CO)c1I)c1c(I)c(C(=O)NC(CO)C(O)CO)c(I)c(C(=O)NC(CO)C(O)CO)c1I` (centres undefined) gave a GHS category of 5.
In turn, `CCOC(C)OCCc1ccccc1` (centres undefined) showed a GHS category of 5.
As to `ICC1CCC(CI)CC1` (centres undefined), the GHS category is given as 5.
`CCCCOc1nn(-c2cccc(C(F)(F)F)c2)c2ncccc12` gave a GHS category of 4.
`CC[C@H](C)[C@@H]1NC(=O)[C@H](Cc2ccc(O)cc2)NC(=O)[C@@H](N)CSSC[C@@H](C(=O)N2CCC[C@H]2C(=O)N[C@@H](CC(C)C)C(=O)NCC(N)=O)NC(=O)[C@H](CC(N)=O)NC(=O)[C@H](CCC(N)=O)NC1=O`: the GHS category is 2.
As for `O=C(COCCOCCOCC(=O)Nc1c(I)cc(I)c(C(=O)O)c1I)Nc1c(I)cc(I)c(C(=O)O)c1I`, the figure is 5; as for `CC(=O)CCCC(C)CCC=C(C)C` (centres undefined), 5.
Next, `CC(=O)N1c2ccccc2SC1c1cc([N+](=O)[O-])ccc1OCCCN(C)C1CCCCC1` (centres undefined): 5; `COc1ccccc1OC(=O)Cc1ccc(C(=O)c2ccc(C)cc2)n1C`: 4.
Consider `O=C(O)[C@H](O)[C@H](O)[C@@H](O)[C@H](O)[C@H](O)CO`, for which the GHS category is reported as 5.
On to `C=C1CC[C@H]2O[C@]2(C)CC[C@@H]2[C@@H]1CC2(C)C`, for which the GHS category stood at 5.
With `COc1ccc(C[C@](C)(NC(N)=O)C(=O)O)cc1OC`, the GHS category is 5.
As for `O=C(Nc1ccccc1C(=O)O)C(=Cc1ccccc1)C(=O)Nc1ccccc1C(=O)O`, the figure is 5; as for `O=S(=O)(O)c1ccc(/N=N/c2cc(CO)c(O)c(/N=N/c3ccc(S(=O)(=O)O)c4ccccc34)c2O)c2ccccc12`, 5; as for `OCCOc1ccc(OCCO)cc1`, 5.
Next, `OCC(O)COc1nn(Cc2ccccc2)c2ccccc12` (centres undefined): 5; `CC(C)OC(=O)C(C)(C)Br`: 5; `CCCCOC(=O)C(=O)[C@H]1[C@H](C)C[C@H]2[C@@H]3C[C@H](F)C4=CC(=O)C=C[C@]4(C)[C@H]3[C@@H](O)C[C@@]21C`: 5.
As for `CCCCCCCC(=O)OCCC(C)C`, the figure is 5; as for `CCOC(=O)C1=C(COCCN2C(=O)c3ccccc3C2=O)NC(C)=C(C(=O)OC)C1c1ccccc1Cl` (centres undefined), 5; as for `CC1(C(=O)O)CCCCC1`, 4.
`CC(=O)Nc1ccc(OC(=O)c2cccs2)cc1` showed a GHS category of 5.
As for `COP(=S)(OC)Oc1ccc(/N=N/c2ccc(Cl)cc2)cc1`, the figure is 4; as for `c1ccc2oc(C3(Cn4ccnc4)OCCO3)cc2c1`, 4; as for `CCCOC(C)OCCC`, 5.
As for `CC(=O)N(C)C(=O)Oc1cccc2c1OC1(CCCC1)O2`, the figure is 4.
As for `CC(C)(C)OOC(C)(C)c1ccc(C(C)(C)OOC(C)(C)C)cc1`, the figure is 5.
In turn, `CCCCCC(O)CCO` (centres undefined) displayed a GHS category of 5.
As for `CC=COC`, the figure is 5; as for `CC1CCC(C(C)C)C(OC(=O)C2OC(O)CS2)C1` (centres undefined), 5.
Next, `CC(C)=CCN(CC=C(C)C)CCC(C#N)(CC=C(C)C)c1cccc2ccccc12` (centres undefined): 4.
As for `CO/N=C(\C(=O)N[C@@H]1C(=O)N2C(C(=O)O)=CCS[C@H]12)c1csc(N)n1`, the figure is 5; as for `CC(C)COC(=O)OCN1C(=O)CN(CCN2CC(=O)N(COC(=O)OCC(C)C)C(=O)C2)CC1=O`, 5.
Consider `CC(=O)CCC=C(C)CC/C=C(\C)CC/C=C(\C)CCC=C(C)C`, for which the GHS category stood at 5.
As for `C=CC/C=C/C/C=C/C/C=C/C`, the GHS category is 5.
Next, `CC/C=C\CCOC(C)=O`: 5.
Next, `CCCCCCOc1ccc(-c2ccc(C#N)cc2)cc1`: 5.
As for `CCCCCCCOCC(COCCCCCCC)(COCCCCCCC)COCCCCCCC`, the figure is 5; as for `CCOCC(C)OC(C)=O` (centres undefined), 5.
`CCCCC(CC)COC(=O)CC(CC(=O)OCC(CC)CCCC)(OC(C)=O)C(=O)OCC(CC)CCCC` (centres undefined) yielded a GHS category of 5.
`C=C(C)CCCC(C)CCOC(C)=O` (centres undefined) came in with a GHS category of 5.
The molecule `CCOC(=O)c1ccc(NC(=O)CC)cc1NC(=O)c1ccc(C(=O)O)cc1` gave a GHS category of 5.
As for `CN(C)[C@@H]1C(O)=C(C(N)=O)C(=O)[C@@]2(O)C(O)=C3C(=O)c4c(O)ccc(Cl)c4[C@@H](O)[C@H]3C[C@@H]12`, the figure is 5; as for `CCCCCCCCOC(=O)c1ccc(C(=O)OCCCCCCCC)cc1`, 5.
The molecule `CC(=O)C(N=Nc1cccc(OCCOc2ccccc2N=NC(C(C)=O)C(=O)Nc2ccc3[nH]c(=O)[nH]c3c2)c1)C(=O)Nc1ccc2[nH]c(=O)[nH]c2c1` (centres undefined) gave a GHS category of 5.
Next, `C=CCCCCC=C`: 5.
Next, `OC(OCC(COC(O)C(Cl)(Cl)Cl)(COC(O)C(Cl)(Cl)Cl)COC(O)C(Cl)(Cl)Cl)C(Cl)(Cl)Cl` (centres undefined): 4.
Molecule `CC(=O)Oc1ccccc1C(=O)Nc1ncc([N+](=O)[O-])s1` showed a GHS category of 5.
As for `CCCCCCCCC(C)C`, the figure is 5; as for `O=C(NC(=O)c1c(F)cccc1F)Nc1cc(Cl)c(OC(F)(F)C(F)F)c(Cl)c1`, 5.
The molecule `CCN(CC)c1ccc(N=Nc2ncc([N+](=O)[O-])s2)cc1` yielded a GHS category of 5.
As for `COC(=O)CCc1cc(-n2nc3ccccc3n2)c(O)c(C(C)(C)C)c1`, the GHS category worked out at 5.
Next, `CON(C)C(=O)Nc1cc(C(C)(C)C)ns1`: 4; `C[C@@H]1O[C@@H]1P(=O)(O)O`: 5; `CC1C(C)(C)C2CCc3cncnc3C2C1(C)C` (centres undefined): 4.
Next, `CCCc1c(Cc2ccc(-c3ccccc3-c3nn[nH]n3)cc2)c(N2CCCCC2)nc2ncnn12`: 4.
As for `CSc1nc(N)c2c(C)coc2n1`, the figure is 5; as for `CCOc1nc(NC)nc(NC(=O)NS(=O)(=O)c2ccccc2C(=O)OC)n1`, 5; as for `COCCOc1ccccc1S(=O)(=O)N=C(O)N=c1nc(OC)[nH]c(OC)n1`, 5.
In turn, `CCC(C)O[Si](OC(C)CC)(OC(C)CC)OC(C)CC` (centres undefined) came in with a GHS category of 5.
On to `CC1Oc2cc(C(=O)C=Cc3ccc(O)cc3)ccc2N(C)C1=O` (centres undefined), for which the GHS category is given as 5.
With `CC(=O)O[C@@H]1C(=O)O[C@@H]2[C@H]1OC(=O)[C@@H]2OC(C)=O`, the GHS category turned out to be 5.
With `C=C(C)c1cccc(C(=C)C)c1`, the GHS category amounted to 5.
In turn, `C=CC(=O)OCCCOCC(C)(C)COCCCOC(=O)C=C` gave a GHS category of 5.
As for `C1C[C@@H]2[C@H]3CC[C@H](C3)[C@@H]2C1`, the figure is 5; as for `COC(=O)NC(=S)Nc1ccc(OCc2ccccc2)cc1[N+](=O)[O-]`, 5; as for `COC(=O)CSP(=S)(OC)OC`, 5.
Take `O=S(=O)(O)c1ccc(/N=N/c2cc(S(=O)(=O)O)c3ccccc3c2O)c2ccccc12`: the GHS category was 5.
